Measurements as given in ChEMBL document CHEMBL1121629, “1-(Aminoalkyl)-6-aryl-4-H-s-triazolo[4,3-a][1,4]benzodiazepines with antianxiety and antidepressant activity” (1980).

Legend:
Type in all cases: functional
Mus musculus [1] = organism: Mus musculus; assay: Tested for stereotyped gnawing and licking behavior of mice pretreated with apomorphine (AG)
Mus musculus [2] = organism: Mus musculus; assay: Tested for antagonism of oxotremorine hypothermia (OX) in mice
Mus musculus [3] = organism: Mus musculus; assay: Prolongation of hypoxic survival time (HS) in mice
Mus musculus [4] = organism: Mus musculus; assay: Tested for potentiation of gamma-butyrolactone induced sleep (gamma-B) in mice
Mus musculus [5] = organism: Mus musculus; assay: Tested for antagonism of nicotine-induced death (D) in mice
Mus musculus [6] = organism: Mus musculus; assay: Tested for antagonism of pentylenetetrazole-induced clonic convulsions (P) in mice
Mus musculus [7] = organism: Mus musculus; assay: Tested for antagonism of nicotine-induced tonic extensor convulsions (TE) in mice
Mus musculus [8] = organism: Mus musculus; assay: Tested for potentiation of yohimbine toxicity in aggregated mice(Y)
Mus musculus [9] = organism: Mus musculus; assay: Tested for antagonism of bicuculline-induced tonic-extensor convulsions (B) in mice

CC(N)c1nnc2n1-c1ccc(Cl)cc1C(c1ccccc1Cl)=NC2 (configuration not stated)
ED50 (Mus musculus [1]): > 50 mg/kg
ED50 (Mus musculus [2]): > 50 mg/kg
ED50 (Mus musculus [3]): 0.02 mg/kg
ED50 (Mus musculus [4]): 0.2 mg/kg
ED50 (Mus musculus [5]): 0.025 mg/kg
ED50 (Mus musculus [6]): 2.2 mg/kg
ED50 (Mus musculus [7]): 0.023 mg/kg
ED50 (Mus musculus [8]): > 50 mg/kg
ED50 (Mus musculus [9]): 0.2 mg/kg

CCN(CC)Cc1nnc2n1-c1ccc(Cl)cc1C(c1ccccc1)=NC2
ED50 (Mus musculus [3]): > 50 mg/kg
ED50 (Mus musculus [4]): 0.6 mg/kg
ED50 (Mus musculus [5]): 0.08 mg/kg
ED50 (Mus musculus [6]): 3.1 mg/kg
ED50 (Mus musculus [7]): 0.08 mg/kg
ED50 (Mus musculus [9]): 2.6 mg/kg

CN(C)Cc1nnc2cc(-c3ccccc3)c3cc(Cl)ccc3n12
ED50 (Mus musculus [1]): > 50 mg/kg
ED50 (Mus musculus [2]): > 50 mg/kg
ED50 (Mus musculus [4]): > 50 mg/kg
ED50 (Mus musculus [5]): 89 mg/kg
ED50 (Mus musculus [6]): > 50 mg/kg
ED50 (Mus musculus [7]): 89 mg/kg
ED50 (Mus musculus [9]): > 50 mg/kg

CC(N)Cc1nnc2n1-c1ccccc1C(c1ccccc1Cl)=NC2 (configuration not stated)
ED50 (Mus musculus [1]): > 50 mg/kg
ED50 (Mus musculus [2]): > 50 mg/kg
ED50 (Mus musculus [3]): 10 mg/kg
ED50 (Mus musculus [4]): > 50 mg/kg
ED50 (Mus musculus [6]): > 50 mg/kg
ED50 (Mus musculus [8]): 20 mg/kg
ED50 (Mus musculus [9]): > 50 mg/kg

NCCc1nnc2n1-c1ccccc1C(c1ccccc1)=NC2
ED50 (Mus musculus [1]): 30 mg/kg
ED50 (Mus musculus [2]): 40 mg/kg
ED50 (Mus musculus [3]): > 50 mg/kg
ED50 (Mus musculus [4]): > 50 mg/kg
ED50 (Mus musculus [6]): > 50 mg/kg
ED50 (Mus musculus [8]): 30 mg/kg
ED50 (Mus musculus [9]): > 50 mg/kg

CN(Cc1nnc2n1-c1ccc(Cl)cc1C(c1ccccc1)=NC2)CC1CC1
ED50 (Mus musculus [1]): > 50 mg/kg
ED50 (Mus musculus [2]): > 50 mg/kg
ED50 (Mus musculus [3]): 30 mg/kg
ED50 (Mus musculus [4]): 1.1 mg/kg
ED50 (Mus musculus [5]): 0.6 mg/kg
ED50 (Mus musculus [6]): 3.1 mg/kg
ED50 (Mus musculus [7]): 0.4 mg/kg
ED50 (Mus musculus [8]): > 50 mg/kg
ED50 (Mus musculus [9]): 2.6 mg/kg

CN(C)Cc1nnc2n1-c1ccc(Cl)cc1C(c1ccccc1)=NC2 [ADINAZOLAM]
ED50 (Mus musculus [3]): 5 mg/kg
ED50 (Mus musculus [4]): 1.6 mg/kg
ED50 (Mus musculus [5]): 0.13 mg/kg
ED50 (Mus musculus [6]): 0.9 mg/kg
ED50 (Mus musculus [9]): 0.7 mg/kg

CC(N)Cc1nnc2n1-c1ccc(Cl)cc1C(c1ccccc1Cl)=NC2 (configuration not stated)
ED50 (Mus musculus [1]): > 50 mg/kg
ED50 (Mus musculus [2]): 17.7 mg/kg
ED50 (Mus musculus [3]): 25 mg/kg
ED50 (Mus musculus [4]): 3.7 mg/kg
ED50 (Mus musculus [6]): 10.5 mg/kg
ED50 (Mus musculus [8]): > 50 mg/kg
ED50 (Mus musculus [9]): 7.4 mg/kg

CC(c1nnc2n1-c1ccc(Cl)cc1C(c1ccccc1)=NC2)N(C)C (configuration not stated)
ED50 (Mus musculus [1]): 21 mg/kg
ED50 (Mus musculus [2]): 10.5 mg/kg
ED50 (Mus musculus [3]): > 50 mg/kg
ED50 (Mus musculus [4]): 17.7 mg/kg
ED50 (Mus musculus [5]): 5 mg/kg
ED50 (Mus musculus [6]): 17.7 mg/kg
ED50 (Mus musculus [7]): 5 mg/kg
ED50 (Mus musculus [8]): 17.7 mg/kg
ED50 (Mus musculus [9]): 12.5 mg/kg

C#CCN(C)Cc1nnc2n1-c1ccccc1C(c1ccccc1Cl)=NC2
ED50 (Mus musculus [1]): > 50 mg/kg
ED50 (Mus musculus [2]): > 50 mg/kg
ED50 (Mus musculus [3]): 3 mg/kg
ED50 (Mus musculus [4]): 8 mg/kg
ED50 (Mus musculus [6]): 2 mg/kg
ED50 (Mus musculus [8]): > 50 mg/kg
ED50 (Mus musculus [9]): 2 mg/kg

CN(C)CCCN1c2ccccc2CCc2ccccc21 [IMIPRAMINE]
ED50 (Mus musculus [1]): 0.9 mg/kg
ED50 (Mus musculus [2]): 1.3 mg/kg
ED50 (Mus musculus [3]): > 50 mg/kg
ED50 (Mus musculus [5]): 7 mg/kg
ED50 (Mus musculus [7]): 7 mg/kg
ED50 (Mus musculus [9]): 21 mg/kg

CC(N)Cc1nnc2n1-c1ccc(Br)cc1C(c1ccccn1)=NC2 (configuration not stated)
ED50 (Mus musculus [1]): 20 mg/kg
ED50 (Mus musculus [2]): > 50 mg/kg
ED50 (Mus musculus [3]): > 50 mg/kg
ED50 (Mus musculus [4]): 40 mg/kg
ED50 (Mus musculus [6]): > 50 mg/kg
ED50 (Mus musculus [8]): 7 mg/kg
ED50 (Mus musculus [9]): > 50 mg/kg

CN(C)CCc1nnc2n1-c1ccccc1C(c1ccccc1Cl)=NC2
ED50 (Mus musculus [1]): > 50 mg/kg
ED50 (Mus musculus [2]): > 50 mg/kg
ED50 (Mus musculus [3]): 7 mg/kg
ED50 (Mus musculus [4]): > 50 mg/kg
ED50 (Mus musculus [6]): 5 mg/kg
ED50 (Mus musculus [8]): 30 mg/kg
ED50 (Mus musculus [9]): > 50 mg/kg

CN(C)CCCc1nnc2n1-c1ccc(Cl)cc1C(c1ccccc1Cl)=NC2
ED50 (Mus musculus [1]): > 50 mg/kg
ED50 (Mus musculus [2]): 25 mg/kg
ED50 (Mus musculus [3]): 2.2 mg/kg
ED50 (Mus musculus [4]): 0.2 mg/kg
ED50 (Mus musculus [6]): 2.2 mg/kg
ED50 (Mus musculus [8]): 25 mg/kg
ED50 (Mus musculus [9]): 2.6 mg/kg

NCCc1nnc2n1-c1ccccc1C(c1ccccc1Cl)=NC2
ED50 (Mus musculus [1]): > 50 mg/kg
ED50 (Mus musculus [2]): > 50 mg/kg
ED50 (Mus musculus [3]): 20 mg/kg
ED50 (Mus musculus [4]): 20 mg/kg
ED50 (Mus musculus [6]): > 50 mg/kg
ED50 (Mus musculus [8]): > 50 mg/kg
ED50 (Mus musculus [9]): > 50 mg/kg

CN(C)Cc1nnc2n1-c1ccc(Cl)cc1/C(c1ccccc1)=N\CC2
ED50 (Mus musculus [1]): > 50 mg/kg
ED50 (Mus musculus [2]): > 50 mg/kg
ED50 (Mus musculus [4]): 15 mg/kg
ED50 (Mus musculus [6]): > 50 mg/kg
ED50 (Mus musculus [7]): > 100 mg/kg
ED50 (Mus musculus [8]): > 50 mg/kg
ED50 (Mus musculus [9]): > 50 mg/kg

NCCc1nnc2n1-c1ccc(Br)cc1C(c1ccccn1)=NC2
ED50 (Mus musculus [1]): > 50 mg/kg
ED50 (Mus musculus [2]): 30 mg/kg
ED50 (Mus musculus [3]): > 50 mg/kg
ED50 (Mus musculus [4]): 30 mg/kg
ED50 (Mus musculus [6]): > 50 mg/kg
ED50 (Mus musculus [8]): 30 mg/kg
ED50 (Mus musculus [9]): > 50 mg/kg

CN(C)CCc1nnc2n1-c1ccc(Br)cc1C(c1ccccc1)=NC2
ED50 (Mus musculus [1]): > 50 mg/kg
ED50 (Mus musculus [2]): 0.9 mg/kg
ED50 (Mus musculus [3]): 5 mg/kg
ED50 (Mus musculus [4]): 5 mg/kg
ED50 (Mus musculus [6]): 5 mg/kg
ED50 (Mus musculus [8]): 3 mg/kg
ED50 (Mus musculus [9]): 7 mg/kg

C[N+](C)([O-])Cc1nnc2n1-c1ccc(Cl)cc1C(c1ccccc1)=NC2
ED50 (Mus musculus [1]): > 50 mg/kg
ED50 (Mus musculus [2]): 5.3 mg/kg
ED50 (Mus musculus [3]): 5.3 mg/kg
ED50 (Mus musculus [4]): 0.6 mg/kg
ED50 (Mus musculus [6]): 0.3 mg/kg
ED50 (Mus musculus [8]): > 50 mg/kg
ED50 (Mus musculus [9]): 0.8 mg/kg

CN(C)OCc1nnc2n1-c1ccc(Cl)cc1C(c1ccccc1)=NC2
ED50 (Mus musculus [1]): > 50 mg/kg
ED50 (Mus musculus [2]): > 50 mg/kg
ED50 (Mus musculus [3]): > 0.2 mg/kg
ED50 (Mus musculus [4]): 0.1 mg/kg
ED50 (Mus musculus [6]): 0.2 mg/kg
ED50 (Mus musculus [8]): > 50 mg/kg
ED50 (Mus musculus [9]): 0.2 mg/kg
